Results: PubChem BioAssay AID248 (DTP/NCI, 2004)
Where “and” joins values, the source holds several entries; their conditions need not be identical. Equal entries are not always repeated. Inconclusive results and toxic doses are left out. Cut-off read from the data, not from the text of the source: active = T/C of 150% or more; inactive = T/C below 125%.

Tested on: L1210 leukemia ip in BDF1 mice, survival T/C
Experiment: NCI In Vivo Anticancer Drug Screen. Data for tumor model L1210 Leukemia (intraperitoneal) in B6D2F1 (BDF1) mice
Conditions: endpoint: mean survival time, higher = longer survival
Procedure, shortened: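 Tumor cells were implanted, animals were treated, and survival was followed. The result divides the treated measurement by the vehicle-control measurement.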

[1] = dose: 100.0 mg/kg/injection, schedule: Q04DX003 (ip), vehicle: Klucel (hydroxypropylcellulose) (HPC)
[2] = dose: 200.0 mg/kg/injection, schedule: Q04DX003 (ip), vehicle: Klucel (hydroxypropylcellulose) (HPC)
[3] = dose: 400.0 mg/kg/injection, schedule: Q04DX003 (ip), vehicle: Klucel (hydroxypropylcellulose) (HPC)
[4] = dose: 100.0 mg/kg/injection, schedule: Q04DX003 (ip), vehicle: saline with Tween-80
[5] = dose: 200.0 mg/kg/injection, schedule: Q04DX003 (ip), vehicle: saline with Tween-80
[6] = dose: 25.0 mg/kg/injection, schedule: Q01DX009 (ip), vehicle: Klucel (hydroxypropylcellulose) (HPC)
[7] = dose: 50.0 mg/kg/injection, schedule: Q01DX009 (ip), vehicle: Klucel (hydroxypropylcellulose) (HPC)
[8] = dose: 100.0 mg/kg/injection, schedule: Q01DX009 (ip), vehicle: Klucel (hydroxypropylcellulose) (HPC)
[9] = dose: 100.0 mg/kg/injection, schedule: Q01DX009 (ip), vehicle: saline sonified
[10] = dose: 100.0 mg/kg/injection, schedule: Q04DX003 (ip), vehicle: saline sonified
[11] = dose: 100.0 mg/kg/injection, schedule: Q04DX003 (ip), vehicle: saline
[12] = dose: 200.0 mg/kg/injection, schedule: Q04DX003 (ip), vehicle: saline
[13] = dose: 100.0 mg/kg/injection, schedule: Q04DX002 (ip), vehicle: saline with Tween-80
[14] = dose: 400.0 mg/kg/injection, schedule: Q04DX003 (ip), vehicle: saline

Measured: T/C

CC(C)c1oc(=O)cc2c1[C@@H](O)[C@H]1OC(=O)[C@@]3(C)[C@@H](O)[C@H]4O[C@H]4[C@@]2(C)[C@@H]13
inactive: dose: 5.0 mg/kg/injection, schedule: Q01DX001 (ip), vehicle: steriod suspending solution 105 % of control | dose: 10.0 mg/kg/injection, schedule: Q01DX001 (ip), vehicle: steriod suspending solution 98 % of control | dose: 20.0 mg/kg/injection, schedule: Q01DX001 (ip), vehicle: steriod suspending solution 110 % of control | dose: 40.0 mg/kg/injection, schedule: Q01DX001 (ip), vehicle: steriod suspending solution 104 % of control

O=C(CC1(O)C(=O)Nc2ccccc21)c1ccccc1 (stereo unspecified)
inactive: [1] 101 % of control | [2] 96 % of control | [3] 96 % of control

N=C(N)c1ccc(OCCCCOc2ccc(NC(=O)Nc3cccc(S(=O)(=O)F)c3)cc2)cc1
inactive: dose: 25.0 mg/kg/injection, schedule: Q01DX001 (ip), vehicle: Klucel (hydroxypropylcellulose) (HPC) 97 % of control | dose: 50.0 mg/kg/injection, schedule: Q01DX001 (ip), vehicle: Klucel (hydroxypropylcellulose) (HPC) 95 % of control | dose: 100.0 mg/kg/injection, schedule: Q01DX001 (ip), vehicle: Klucel (hydroxypropylcellulose) (HPC) 89 % of control

CC(=O)Nc1ccc(S(=O)(=O)NC(=O)NC(C)C)cc1
inactive: [4] 103 % of control | [5] 97 % of control | dose: 400.0 mg/kg/injection, schedule: Q04DX003 (ip), vehicle: saline with Tween-80 100 % of control

COc1cc(OC)c(C(=O)c2ccccc2N)c(OC)c1
inactive: [4] 89 % of control | [5] 87 % of control

CN(C)CCN(Cc1ccccc1)c1ccccc1
inactive: [6] 98 % of control | dose: 25.0 mg/kg/injection, schedule: Q04DX003 (ip), vehicle: Klucel (hydroxypropylcellulose) (HPC) 95 % of control | [7] 102 % of control | dose: 50.0 mg/kg/injection, schedule: Q04DX003 (ip), vehicle: Klucel (hydroxypropylcellulose) (HPC) 103 % of control | [8] 106 % of control | [1] 103 % of control

O=C1NCN(c2ccccc2)C12CCNCC2
inactive: dose: 25.0 mg/kg/injection, schedule: Q01DX009 (ip), vehicle: saline sonified 108 % of control | dose: 25.0 mg/kg/injection, schedule: Q04DX003 (ip), vehicle: saline with Tween-80 89 % of control | dose: 50.0 mg/kg/injection, schedule: Q01DX009 (ip), vehicle: saline sonified 98 % of control | dose: 50.0 mg/kg/injection, schedule: Q04DX003 (ip), vehicle: saline with Tween-80 94 % of control | [9] 103 % of control | [10] 95 % of control | [4] 89 % of control

COc1ccc(Cc2nccc3c(OC)c(OC)ccc23)cc1OC
inactive: dose: 25.0 mg/kg/injection, schedule: Q01DX009 (ip), vehicle: saline 98 % of control | dose: 25.0 mg/kg/injection, schedule: Q04DX003 (ip), vehicle: saline 107 % of control | dose: 50.0 mg/kg/injection, schedule: Q01DX009 (ip), vehicle: saline 102 % of control | dose: 50.0 mg/kg/injection, schedule: Q04DX003 (ip), vehicle: saline 93 % of control | dose: 100.0 mg/kg/injection, schedule: Q01DX009 (ip), vehicle: saline 93 % of control | [11] 96 % of control and 103 % of control | [12] 86 % of control

CCOC(CNC(=S)Nc1ccccc1)OCC
inactive: dose: 100.0 mg/kg/injection, schedule: Q01DX001 (ip), vehicle: carboxymethylcellulose (CMC) 89 % of control | dose: 200.0 mg/kg/injection, schedule: Q01DX001 (ip), vehicle: carboxymethylcellulose (CMC) 95 % of control | dose: 400.0 mg/kg/injection, schedule: Q01DX001 (ip), vehicle: carboxymethylcellulose (CMC) 95 % of control

Nc1nc(N)nc(Cl)n1
inactive: [13] 98 % of control | dose: 400.0 mg/kg/injection, schedule: Q04DX002 (ip), vehicle: saline with Tween-80 95 % of control

Clc1ccc(Cl)c(-c2csc(Nc3cccnc3)n2)c1
inactive: [11] 92 % of control | [12] 94 % of control | [14] 97 % of control

CCCN(CCC)C(=S)CC
inactive: [13] 94 % of control | dose: 200.0 mg/kg/injection, schedule: Q04DX002 (ip), vehicle: saline with Tween-80 98 % of control

CNc1ccc(N=Nc2ccc3ncccc3c2)cc1
inactive: dose: 3.8 mg/kg/injection, schedule: Q01DX009 (ip), vehicle: saline 98 % of control | dose: 6.7 mg/kg/injection, schedule: Q01DX Z (ip), vehicle: carboxymethylcellulose (CMC) 98 % of control | dose: 7.5 mg/kg/injection, schedule: Q01DX009 (ip), vehicle: saline 102 % of control | dose: 10.0 mg/kg/injection, schedule: Q01DX Z (ip), vehicle: carboxymethylcellulose (CMC) 92 % of control | dose: 15.0 mg/kg/injection, schedule: Q01DX009 (ip), vehicle: saline 98 % of control | dose: 15.0 mg/kg/injection, schedule: Q01DX Z (ip), vehicle: carboxymethylcellulose (CMC) 92 % of control | dose: 30.0 mg/kg/injection, schedule: Q01DX009 (ip), vehicle: saline 89 % of control

Nc1ncnc2c(C(=O)O)c[nH]c12
inactive: dose: 100.0 mg/kg/injection, schedule: Q01DX001 (ip), vehicle: other 98 % of control | dose: 200.0 mg/kg/injection, schedule: Q01DX001 (ip), vehicle: other 110 % of control | dose: 400.0 mg/kg/injection, schedule: Q01DX001 (ip), vehicle: other 111 % of control

CCNC(C)(C)C(SSS)c1cccs1 (stereo unspecified)
inactive: [9] 96 % of control | [10] 91 % of control | dose: 200.0 mg/kg/injection, schedule: Q01DX009 (ip), vehicle: saline sonified 94 % of control | dose: 200.0 mg/kg/injection, schedule: Q04DX003 (ip), vehicle: saline sonified 87 % of control | dose: 400.0 mg/kg/injection, schedule: Q01DX009 (ip), vehicle: saline sonified 88 % of control | dose: 400.0 mg/kg/injection, schedule: Q04DX003 (ip), vehicle: saline sonified 89 % of control

CC(C)=CC(=O)CNC(N)=S
inactive: [1] 100 % of control and 98 % of control | [2] 101 % of control | [3] 93 % of control

CC(=O)CC(=O)C(F)(F)F.CC(=O)CC(=O)C(F)(F)F.[Mn]
inactive: [6] 106 % of control | dose: 50.0 mg/kg/injection, schedule: Q01DX005 (ip), vehicle: Klucel (hydroxypropylcellulose) (HPC) 97 % of control | [7] 106 % of control | dose: 100.0 mg/kg/injection, schedule: Q01DX005 (ip), vehicle: Klucel (hydroxypropylcellulose) (HPC) 93 % of control | [8] 106 % of control | dose: 100.0 mg/kg/injection, schedule: Q04DX002 (ip), vehicle: Klucel (hydroxypropylcellulose) (HPC) 104 % of control | dose: 200.0 mg/kg/injection, schedule: Q04DX002 (ip), vehicle: Klucel (hydroxypropylcellulose) (HPC) 96 % of control

O=C(CCNC(=O)c1ccccc1)Oc1ccccc1
inactive: [11] 93 % of control | [12] 95 % of control | [14] 92 % of control

Cc1ccc(S(=O)(=O)c2ccc(C)c(N)c2)cc1N
inactive: dose: 100.0 mg/kg/injection, schedule: Q04DX002 (ip), vehicle: saline 105 % of control | dose: 200.0 mg/kg/injection, schedule: Q04DX002 (ip), vehicle: saline 99 % of control | dose: 400.0 mg/kg/injection, schedule: Q04DX002 (ip), vehicle: saline 96 % of control

Cc1cc(NS(=O)(=O)c2ccc(N=Nc3c(N)nc(N)[nH]c3=O)cc2)nc(C)n1
inactive: dose: 100.0 mg/kg/injection, schedule: Q01DX001 (ip), vehicle: saline 97 % of control | dose: 200.0 mg/kg/injection, schedule: Q01DX001 (ip), vehicle: saline 89 % of control | dose: 400.0 mg/kg/injection, schedule: Q01DX001 (ip), vehicle: saline 92 % of control

CCCCOc1ccc(OCCCCCCCCCC[N+](C)(C)C)cc1
inactive: dose: 1.56 mg/kg/injection, schedule: Q04DX002 (ip), vehicle: saline 103 % of control | dose: 3.13 mg/kg/injection, schedule: Q04DX002 (ip), vehicle: saline 96 % of control | dose: 6.25 mg/kg/injection, schedule: Q04DX002 (ip), vehicle: saline 96 % of control | dose: 12.5 mg/kg/injection, schedule: Q04DX002 (ip), vehicle: saline 97 % of control and 122 % of control

CCCCCCCCCC(C)CCCC (stereo unspecified)
inactive: dose: 100.0 mg/kg/injection, schedule: Q01DX001 (ip), vehicle: saline with Tween-80 86 % of control | dose: 200.0 mg/kg/injection, schedule: Q01DX001 (ip), vehicle: saline with Tween-80 96 % of control
